Test results as given in a compilation of properties of binary mixtures (doi:10.1016/j.jct.2012.02.027).

Assay: xn = mol fraction of the nth substance listed
Details: 101 kPa

O + CC(=O)[O-].CC[n+]1ccn(C)c1
x1 = 1
Details | viscosity [mPa·s]
328.15 K | 0.51
343.15 K | 0.41

CCO + CC[n+]1ccn(C)c1.N#C[N-]C#N
x1 = 1
Details | viscosity [mPa·s]
298.15 K | 1.09
343.15 K | 0.5

O + CC[n+]1ccn(C)c1.N#C[N-]C#N
Details | viscosity [mPa·s]
298.15 K, x1 = 1 | 0.89

CC(=O)[O-].CC[n+]1ccn(C)c1 + CCO
viscosity [mPa·s]
Details | 298.15 K | 313.15 K | 328.15 K | 343.15 K
x2 = 0 | 132.9 | 57.7 | – | 18.1
x2 = 0.1059 | 92.3 | – | 24.1 | –
x2 = 0.1638 | 75 | 36.9 | 21.14 | 13.51
x2 = 0.2471 | 54.2 | – | 17.22 | 11.24
x2 = 0.3504 | 35.2 | 20.3 | 12.77 | –
x2 = 0.4165 | 26.5 | 16.06 | 10.47 | –
x2 = 0.4824 | 19.82 | 12.48 | 8.44 | 6.05
x2 = 0.5572 | 14.11 | – | 6.48 | 4.76
x2 = 0.6646 | 8.27 | 5.79 | 4.27 | 3.27
x2 = 0.7494 | 5.35 | – | 2.96 | 2.33
x2 = 0.8666 | – | 2.02 | 1.59 | 1.28

CCO + CC(=O)[O-].CC[n+]1ccn(C)c1
x1 = 1
Details | viscosity [mPa·s]
298.15 K | 1.09
313.15 K | 0.83
328.15 K | 0.64
343.15 K | 0.5

CC[n+]1ccn(C)c1.N#C[N-]C#N + O
viscosity [mPa·s]
Details | 298.15 K | 313.15 K | 328.15 K | 343.15 K
x2 = 0 | – | 10.07 | 7.26 | –
x2 = 0.1299 | 12.78 | 8.71 | 6.33 | 4.84
x2 = 0.2248 | – | – | 5.65 | 4.34
x2 = 0.3042 | – | 7.04 | 5.11 | 3.94
x2 = 0.4308 | – | 5.8 | 4.3 | 3.33
x2 = 0.5429 | 6.96 | 4.81 | 3.58 | 2.78
x2 = 0.6534 | 5.41 | 3.81 | 2.84 | 2.23
x2 = 0.7355 | 4.41 | 3.11 | 2.32 | 1.8
x2 = 0.7944 | – | 2.56 | – | 1.48
x2 = 0.8803 | – | – | 1.31 | 1.04
x2 = 0.953 | 1.47 | – | 0.82 | 0.66
